Laboratory results reported in paper PMC1192819, “Molecular cloning and characterization of a nuclear androgen receptor activated by 11-ketotestosterone” (Reproductive biology and endocrinology : RB&E, 2005).

Key:
[1] = biological target: T1, AR in stickleback kidney cytosolic extracts (Gasterosteus aculeatus, UniProt Q801Z1); assay: Ligand competition assay with 1 nM [3H]-DHT, kidney cytosolic extracts; assay type: binding, three-spined stickleback (Gasterosteus aculeatus); conditions: overnight 4°C, read-out: EC50 (competition for [3H]-DHT binding)
T1 sequence (Q801Z1 1-682): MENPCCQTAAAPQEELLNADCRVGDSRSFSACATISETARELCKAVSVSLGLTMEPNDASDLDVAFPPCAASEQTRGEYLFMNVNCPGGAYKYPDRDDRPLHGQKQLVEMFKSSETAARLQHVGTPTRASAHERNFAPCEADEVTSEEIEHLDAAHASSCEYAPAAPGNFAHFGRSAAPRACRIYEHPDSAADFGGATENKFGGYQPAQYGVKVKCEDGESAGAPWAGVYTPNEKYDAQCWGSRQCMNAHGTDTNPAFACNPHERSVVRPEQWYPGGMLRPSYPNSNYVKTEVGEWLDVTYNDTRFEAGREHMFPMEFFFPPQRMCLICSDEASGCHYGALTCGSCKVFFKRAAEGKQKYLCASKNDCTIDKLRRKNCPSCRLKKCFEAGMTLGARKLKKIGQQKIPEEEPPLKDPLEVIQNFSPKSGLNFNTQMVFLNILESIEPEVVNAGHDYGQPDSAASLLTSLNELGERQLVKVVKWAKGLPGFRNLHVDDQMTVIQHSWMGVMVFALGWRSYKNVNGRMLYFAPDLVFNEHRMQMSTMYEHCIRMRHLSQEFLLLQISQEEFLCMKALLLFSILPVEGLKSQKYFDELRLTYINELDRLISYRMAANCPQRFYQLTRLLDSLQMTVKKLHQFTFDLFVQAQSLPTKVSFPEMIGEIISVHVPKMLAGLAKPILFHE
Protocol: (§1) The steroid specificity of receptor binding was examined using a competitive binding assay. […] Following incubation, the reaction was terminated by addition of DCC and centrifugation and the specific binding in each tube was determined as described above.

[2] = biological target: T2, stickleback ARβ2 (reticulocyte lysate) (Gasterosteus aculeatus, UniProt Q801Z2); assay: Ligand competition assay with 1 nM [3H]-DHT, ARβ2 containing reticulocyte extract; assay type: binding, three-spined stickleback (Gasterosteus aculeatus); conditions: read-out: EC50 (competition for [3H]-DHT binding)
T2 sequence (Q801Z2 1-735): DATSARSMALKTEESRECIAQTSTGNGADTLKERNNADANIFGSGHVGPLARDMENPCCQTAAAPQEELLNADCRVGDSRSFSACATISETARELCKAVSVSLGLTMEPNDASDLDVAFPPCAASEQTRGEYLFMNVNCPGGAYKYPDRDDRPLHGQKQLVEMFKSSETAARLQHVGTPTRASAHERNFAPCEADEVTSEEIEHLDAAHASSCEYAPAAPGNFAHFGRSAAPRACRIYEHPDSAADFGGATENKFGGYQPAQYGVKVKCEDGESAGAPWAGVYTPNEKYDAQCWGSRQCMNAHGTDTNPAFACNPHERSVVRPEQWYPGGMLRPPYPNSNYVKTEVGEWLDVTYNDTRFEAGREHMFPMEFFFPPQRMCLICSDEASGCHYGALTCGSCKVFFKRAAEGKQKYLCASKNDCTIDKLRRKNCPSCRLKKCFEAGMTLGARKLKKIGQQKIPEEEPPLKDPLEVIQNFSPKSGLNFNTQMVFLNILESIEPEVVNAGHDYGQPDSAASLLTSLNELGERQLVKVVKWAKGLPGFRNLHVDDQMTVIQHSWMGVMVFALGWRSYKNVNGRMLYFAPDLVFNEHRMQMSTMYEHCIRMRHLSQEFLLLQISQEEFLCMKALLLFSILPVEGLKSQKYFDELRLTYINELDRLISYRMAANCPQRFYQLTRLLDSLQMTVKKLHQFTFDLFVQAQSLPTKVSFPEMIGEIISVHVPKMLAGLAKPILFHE
Protocol: The excised AR pBK CMV clones were digested with XbaI and EcoRI and the inserts were gel purified prior to ligation into the pCMV-TNT vector (Promega) between XbaI and EcoRI. […] AR was expressed by introducing the pCMV-TNT into the TNT coupled reticulocyte lysate system (Promega) according to the manufacturer's instructions. The size of the expressed products was determined by addition of S^35-methionin to the reticulocyte lysate system. The obtained protein suspension was analyzed on a denaturing 8% SDS PAGE and the sizes were determined using prestained SDS-PAGE broad range protein molecular weight standard (Bio-Rad) and a control luciferase protein of 62 kDa included in the reticulocyte lysate system (Promega). For use in binding assays AR was expressed in the absence of radioactive S^35-methionein and stored at 4°C until further used in recombinant binding assay experiments.
as §1

stickleback ARβ2 = assay: ARE-luciferase trans-activation assay, stickleback ARβ2 in transfected HepG2 and ZFL cells; assay type: cell-based, three-spined stickleback (Gasterosteus aculeatus); conditions: for induction of luciferase activity: 40 h, versus control
Protocol: Two liver epithelial cell lines were used to test receptor activity. HepG2 cells (ATCC, Manassas, VA) were maintained in DMEM supplemented with 10% FCS and non-essential amino acids. ZFL cells (ATCC) were maintained in 50% L-15 Leibovitz, 15% […] and 35% DMEM supplemented with 10% FCS (Gibco, Paisley, Scotland, UK) and 50 ng ml-1 EGF (Sigma). Cells were cultured at 37°C (HepG2) or 28°C (ZFL) in 5% CO2. The transfection experiments were initiated by replacing the tissue culture medium with fresh phenol-free medium supplemented with charcoal stripped FCS and the cells were seeded on 24-well plates. Transfections were performed at 90–95% confluence using 1,5 μl Lipofectamine 2000 (Invitrogen, Carlsbad, CA, USA) and 0,6 μg DNA per well. Transfected DNA contained 60 ng pRL (Promega), 270 ng androgen response element (ARE) luciferase reporter vector, 270 ng stickleback ARβ2 expression vector or 270 ng human AR expression vector (pCMVhAR) while 270 ng empty TNT cloning vector was used to control background luciferase levels following transfections. Two different ARE containing promoter constructs were tested, one containing 3 separate ARE (HRE; slp-ARU) and a second one construct (slp-HRE2) containing 4 copies of the ARE with high affinity for R1881, a synthetic androgen, and low affinity for dexamethasone, a synthetic glucocorticoid.
After 16 h the transfection medium was replaced with fresh phenol-free medium, supplemented with charcoal stripped FCS, containing different steroid hormones. The cells were exposed to the hormones for 40 h and luciferase levels were detected using the Dual Luciferase Assay kit (Promega) in a TD 20/20 Luminometer (Turner Designs, Sunnyvale, CA). For each cell line, transfection assay was performed for each concentration with n = 4 and the luciferase value of each assay were normalized to its corresponding Renilla luciferase activity. Each experiment was repeated a minimum of 3 times. The fold-induction is presented as luciferase values normalized against the control. The control levels were arbitrarily set to 1.0 for each cell line.

rainbow trout ARα = conditions: COS-1 cell line; read-out: IC50 (ligand binding); cited from earlier work

C[C@]12CC(=O)[C@H]3[C@@H](CCC4=CC(=O)CC[C@@]43C)[C@@H]1CC[C@@H]2O [KT, 11-ketotestosterone]
EC50 [1]: 42.8 ± 3.42 nM
EC50 [2]: 2.18 ± 0.71 nM
induction of luciferase activity (stickleback ARβ2; HepG2 cells): 10 fold
potency in activating the luciferase reporter gene relative to DHT (stickleback ARβ2; HepG2 or ZFL cells, slp-ARU or slp-ARE reporter): 3 fold
activation of stickleback AR compared with other androgens (stickleback ARβ2; ZFL cells, 10^-8 M of each steroid): preferentially activated
induction of luciferase activity (stickleback ARβ2; ZFL cells): 12 fold
IC50 (rainbow trout ARα): 8 nM
